# Reference: patent publication EP1282414B1, “FELBAMATE DERIVED COMPOUNDS FOR TREATING NEUROPATHIC PAIN” (University of Virginia Patent Foundation, priority 2000, dated 2001)
# Columns and labels:
# rats = assay: Minimal neurotoxicity (TOX), positional sense and gait and stance tests, rats p.o.; type: in vivo; conditions: for TOX, number of animals exhibiting toxic effects / total number of animals tested: rat p.o., 30 mg/kg
# From the text: (§1) The fluoro derivatives synthesized were submitted to the National Institute of Neurological Disorders and Stroke (NINDS) for evaluation in a standard panel of assays. Two convulsant tests (MES and scMET), and a toxicity screen (rotorod in mice, positional sense and gait in rats) were employed for evaluating the compounds activity as neuroprotecting agents. These testing procedures are described in detail in Molecular and Cellular Targets for Anti-epileptic Drugs, eds. […] The felbamate derivatives were evaluated for anticonvulsant activity following intraperitoneal (i.p.) administration in mice and oral administration in rats.
# (§2) Rats are examined for behavioral toxicity by the positional sense test and a gait and stance test. […] In the gait and stance test, neurotoxicity is indicated by a circular or zigzag gait, ataxia, abnormal spread of the legs, abnormal posture, tremor hyperactivity, lack of exploratory behavior, somnolence, stupor or catalepsy. […]
# [1] = as above; type: in vivo; conditions: in vivo, po; rat
# From the text: as §1, §2
# [2] = tested on: MES-induced seizure spread; assay: Maximal Electroshock Seizure (MES) test, mice i.p.; type: in vivo; conditions: for MES, number of animals protected / total number of animals tested: mice i.p.
# From the text: (§3) The fluoro derivatives synthesized were submitted to the National Institute of Neurological Disorders and Stroke (NINDS) for evaluation in a standard panel of assays. Two convulsant tests (MES and scMET), and a toxicity screen (rotorod in mice, positional sense and gait in rats) were employed for evaluating the compounds activity as neuroprotecting agents. These testing procedures are described in detail in Molecular and Cellular Targets for Anti-epileptic Drugs, eds. G. Avanzini, G. Regesta, P. Tanganelli, M. Avoli, 1997, John Libbey & Company Ltd, pp 191-198. The felbamate derivatives were evaluated for anticonvulsant activity following intraperitoneal (i.p.) administration in mice and oral administration in rats.
# The MES test is a model for generalized tonic-clonic seizures and is used to identify compounds which prevent seizure spread. The behavioral and electrographic seizures generated in this model are consistent with the human disorder. In the MES test, an electrical stimulus of 0.2 s in duration (50 mA in mice and 150 mA in rat at 60Hz) was delivered via corneal electrodes primed with an electrolyte solution containing an anesthetic agent. […] Rats were tested at time intervals between 0.25 and 4 hours following a standard oral dose of 30 mg/kg. Abolition of the hindlimb tonic extensor component indicates the test compound's ability to inhibit MES-induced seizure spread.
# (§4) For the MES and scMET tests the data is presented in the form of the number of animals protected by the administered compound / total number of animals tested. […] Qualitative data was obtained for fluoro felbamate 12 (Tables 1 and 2A), fluoro monocarbamate felbamate 13 (Tables 1 and 2B), and fluorodioxo 16 (Tables 1 and 2C) and for cyclic felbamate 21 (Tables 5 and 6B) and cyclic monocarbamate 22 (Tables 5 and 6A). More extensive quantitative data was also obtained for fluoro felbamate 12 in mice (Table 3) and rats (Table 4).
# mice = assay: Minimal neurotoxicity (TOX), rotorod test, mice i.p.; type: in vivo; conditions: for TOX, number of animals exhibiting toxic effects / total number of animals tested: mice i.p.
# From the text: as §1, with “rats. […]” for “rats.”
# [3] = as above; type: in vivo; conditions: in vivo, ip; mouse, I.P.
# From the text: as §1, with “rats. […]” for “rats.”
# [4] = tested on: MES-induced seizure spread; assay: Maximal Electroshock Seizure (MES) test, rats p.o.; type: in vivo, rat; conditions: for MES, number of animals protected / total number of animals tested: rat p.o., 30 mg/kg
# From the text: as §3
# The MES test is a model for generalized tonic-clonic seizures and is used to identify compounds which prevent seizure spread. The behavioral and electrographic seizures generated in this model are consistent with the human disorder. In the MES test, an electrical stimulus of 0.2 s in duration (50 mA in mice and 150 mA in rat at 60Hz) was delivered via corneal electrodes primed with an electrolyte solution containing an anesthetic agent. Mice were tested at 30 minutes and 4 hours following doses of 30, 100 and 300 mg/kg of test compound. Rats were tested at time intervals between 0.25 and 4 hours following a standard oral dose of 30 mg/kg. Abolition of the hindlimb tonic extensor component indicates the test compound's ability to inhibit MES-induced seizure spread.
# as §4
# pentylenetetrazol [5] = assay: Subcutaneous Metrazol seizure test (scMET), rats p.o.; type: in vivo, Sprague-Dawley rats; conditions: po, rat
# From the text: as §3
# This is a model that primarily identifies compounds that raise seizure threshold. With some minor exceptions, the pharmacological profile of the scMET seizure model is consistent with the human condition. […]
# For the MES and scMET tests the data is presented in the form of the number of animals protected by the administered compound / total number of animals tested. […] More extensive quantitative data was also obtained for fluoro felbamate 12 in mice (Table 3) and rats (Table 4).
# pentylenetetrazol [6] = assay: Subcutaneous Metrazol seizure test (scMET), mice i.p.; type: in vivo, Carworth Farms No. 1 mice; conditions: for ScMET, number of animals protected / total number of animals tested: mice i.p.
# From the text: as §3
# This is a model that primarily identifies compounds that raise seizure threshold. With some minor exceptions, the pharmacological profile of the scMET seizure model is consistent with the human condition. The scMET test utilizes a dose of pentylenetetrazol (85 mg/kg in Carworth Farms No. 1 mice and 70 mg/kg in Sprague-Dawley rats) that induces clonic seizures lasting for a period of at least five seconds in 97 % (CD97) of animals tested. At the anticipated time of testing the convulsant is administered subcutaneously. The test compound is administered intraperitoneally in mice and orally in rats. Animals are observed over a 30 minute period. Absence of clonic spasms in the observed time period indicates a compound's ability to abolish the effect of pentylenetetrazol on seizure threshold.
# as §4
smiles,measurement,setting,value
"NC(=O)OCC(F)(COC(N)=O)c1ccccc1 [fluoro felbamate, 2-Fluoro-2-phenyl-1,3-propanediol dicarbamate]","TOX, number of animals exhibiting toxic effects / total number of animals tested",rats; 0.25h,0/4
same,"TOX, number of animals exhibiting toxic effects / total number of animals tested",rats; 0.5h,0/4
same,"TOX, number of animals exhibiting toxic effects / total number of animals tested",rats; 1.0h,0/4
same,"TOX, number of animals exhibiting toxic effects / total number of animals tested",rats; 2.0h,0/4
same,"TOX, number of animals exhibiting toxic effects / total number of animals tested",rats; 4.0h,1/4
same,no toxicity at doses up to,"rats; rats, oral administration",up to 500 mg/kg
same,ED50,[1],> 500 mg/kg
same,ED50,"[2]; Mus musculus, ip, read-out: MES ED50, mouse, I.P.",~20 mg/kg
same,"MES, number of animals protected / total number of animals tested","[2]; 3 mg/kg, 0.5h",0/4
same,"MES, number of animals protected / total number of animals tested","[2]; 3 mg/kg, 4.0h",0/1
same,"MES, number of animals protected / total number of animals tested","[2]; 10 mg/kg, 0.5h",0/4
same,"MES, number of animals protected / total number of animals tested","[2]; 10 mg/kg, 4.0h",1/4
same,"MES, number of animals protected / total number of animals tested","[2]; 30 mg/kg, 0.5h",1/1
same,"MES, number of animals protected / total number of animals tested","[2]; 30 mg/kg, 4.0h",1/1
same,"MES, number of animals protected / total number of animals tested","[2]; 100 mg/kg, 0.5h",3/3
same,"MES, number of animals protected / total number of animals tested","[2]; 100 mg/kg, 4.0h",3/3
same,"MES, number of animals protected / total number of animals tested","[2]; 300 mg/kg, 0.5h",1/1
same,"MES, number of animals protected / total number of animals tested","[2]; 300 mg/kg, 4.0h",1/1
same,MES ED50,"[2]; mouse, I.P.",19.96 mg/kg
same,"TOX, number of animals exhibiting toxic effects / total number of animals tested","mice; 3 mg/kg, 0.5h",0/4
same,"TOX, number of animals exhibiting toxic effects / total number of animals tested","mice; 3 mg/kg, 4.0h",0/4
same,"TOX, number of animals exhibiting toxic effects / total number of animals tested","mice; 10 mg/kg, 0.5h",0/4
same,"TOX, number of animals exhibiting toxic effects / total number of animals tested","mice; 10 mg/kg, 4.0h",0/4
same,"TOX, number of animals exhibiting toxic effects / total number of animals tested","mice; 30 mg/kg, 0.5h",1/4
same,"TOX, number of animals exhibiting toxic effects / total number of animals tested","mice; 30 mg/kg, 4.0h",0/2
same,"TOX, number of animals exhibiting toxic effects / total number of animals tested","mice; 100 mg/kg, 0.5h",4/8
same,"TOX, number of animals exhibiting toxic effects / total number of animals tested","mice; 100 mg/kg, 4.0h",0/4
same,"TOX, number of animals exhibiting toxic effects / total number of animals tested","mice; 300 mg/kg, 0.5h",4/4
same,"TOX, number of animals exhibiting toxic effects / total number of animals tested","mice; 300 mg/kg, 4.0h",2/2
same,safety ratio,"mice; mice, i.p., toxicity relative to MES ED50",at least five
same,ED50,[3],115 mg/kg
same,ED50,"[4]; Rattus norvegicus, po, read-out: MES ED50, rat, p.o.",~3 mg/kg
same,"MES, number of animals protected / total number of animals tested",[4]; 0.25h,2/4
same,"MES, number of animals protected / total number of animals tested",[4]; 0.5h,4/4
same,"MES, number of animals protected / total number of animals tested",[4]; 1.0h,4/4
same,"MES, number of animals protected / total number of animals tested",[4]; 2.0h,4/4
same,"MES, number of animals protected / total number of animals tested",[4]; 4.0h,4/4
same,ED50,pentylenetetrazol [5],> 250 mg/kg
same,ED50,"pentylenetetrazol [6]; Mus musculus, ip, read-out: ScMET ED50",> 160 mg/kg
same,"ScMET, number of animals protected / total number of animals tested","pentylenetetrazol [6]; 30 mg/kg, 0.5h",0/1
same,"ScMET, number of animals protected / total number of animals tested","pentylenetetrazol [6]; 30 mg/kg, 4.0h",0/1
same,"ScMET, number of animals protected / total number of animals tested","pentylenetetrazol [6]; 100 mg/kg, 0.5h",0/1
same,"ScMET, number of animals protected / total number of animals tested","pentylenetetrazol [6]; 100 mg/kg, 4.0h",0/1
same,"ScMET, number of animals protected / total number of animals tested","pentylenetetrazol [6]; 300 mg/kg, 0.5h",0/1
same,"ScMET, number of animals protected / total number of animals tested","pentylenetetrazol [6]; 300 mg/kg, 4.0h",0/1
